The target in this assay is T1, MD2 (myeloid differentiation protein 2) (Homo sapiens, UniProt Q9Y6Y9).
T1 construct: gene LY96; recombinant human MD2 (rhMD2)
T1 sequence (Q9Y6Y9 19-160): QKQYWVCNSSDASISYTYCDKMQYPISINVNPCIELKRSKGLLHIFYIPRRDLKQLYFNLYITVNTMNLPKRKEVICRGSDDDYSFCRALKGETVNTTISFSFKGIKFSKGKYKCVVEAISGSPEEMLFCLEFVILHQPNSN
Description: SPR (ProteOn XPR36); supported by bis-ANS displacement and biotin-LPS competitive ELISA. It is filed as binding. A general note: ELISA stands for enzyme-linked immunosorbent assay.

In the case of `COc1ccc(C(=O)/C=C/c2cc(OC)c(OC)c(OC)c2)cc1OC` [compound 20], the Kd worked out at 189 µM.

Usually Kd stands for the free concentration of one partner at which half of the binding sites on the other are occupied at equilibrium, for simple one-to-one binding.
